This experiment deals with T1, human PDE2A1 (Homo sapiens, UniProt O00408).
T1 construct: GST; purchased BPS Bioscience (San Diego, Calif.) 60020; host or cells: insect cells
The experiment is described as follows: IMAP FP PDE assay, human PDE2A1. It is filed as biochemical. As to conditions: Lab B; read-out: Human PDE2 Ki (nM) Lab B. The essentials: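 GST-tagged human PDE2A1 from insect cells; substrate 50 nM FAM-cAMP containing 1000 nM cGMP in Tris pH 7.2/MgCl2/DTT buffer, enzyme giving 20% conversion. 60 min at room temperature, IMAP binding reagent, fluorescence polarization read. Apparent Ki from FP readings using apparent KM 10,000 nM; ten-point 3-fold titrations.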

T1 sequence (O00408 1-920 isoform O00408-2): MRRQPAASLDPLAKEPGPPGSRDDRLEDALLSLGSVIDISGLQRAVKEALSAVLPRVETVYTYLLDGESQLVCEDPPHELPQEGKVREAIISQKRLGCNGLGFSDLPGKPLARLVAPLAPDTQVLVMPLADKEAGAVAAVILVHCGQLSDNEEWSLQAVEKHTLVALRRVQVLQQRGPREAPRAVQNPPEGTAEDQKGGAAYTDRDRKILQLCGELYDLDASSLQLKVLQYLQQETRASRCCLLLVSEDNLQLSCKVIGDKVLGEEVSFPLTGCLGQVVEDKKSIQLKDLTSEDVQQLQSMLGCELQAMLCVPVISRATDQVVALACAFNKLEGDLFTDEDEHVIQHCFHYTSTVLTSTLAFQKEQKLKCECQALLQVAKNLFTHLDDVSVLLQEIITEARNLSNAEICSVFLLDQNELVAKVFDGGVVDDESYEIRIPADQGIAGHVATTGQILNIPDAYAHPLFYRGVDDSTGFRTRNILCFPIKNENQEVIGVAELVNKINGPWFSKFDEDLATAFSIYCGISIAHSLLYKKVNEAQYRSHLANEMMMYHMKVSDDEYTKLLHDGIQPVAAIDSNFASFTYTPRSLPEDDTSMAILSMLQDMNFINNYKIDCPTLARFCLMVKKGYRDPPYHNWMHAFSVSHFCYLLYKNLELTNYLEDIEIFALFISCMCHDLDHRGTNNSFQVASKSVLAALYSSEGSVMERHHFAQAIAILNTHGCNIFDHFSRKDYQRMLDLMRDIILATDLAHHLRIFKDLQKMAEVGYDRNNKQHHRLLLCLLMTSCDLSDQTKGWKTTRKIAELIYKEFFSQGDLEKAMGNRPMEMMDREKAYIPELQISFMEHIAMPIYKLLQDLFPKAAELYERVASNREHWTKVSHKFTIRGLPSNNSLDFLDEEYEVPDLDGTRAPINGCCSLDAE

The Ki is a dissociation constant, usually derived from enzyme kinetics or from competition with a known ligand. Turning to `Cc1nc2c(c(CO)nn2C(C)c2ccc(SC(F)(F)F)cc2)c(=O)[nH]1` (single isomer, unassigned) [Example 23, (S)- or (R)-3-(Hydroxymethyl)-6-methyl-1-(1-(4-(trifluoromethylthio)phenyl)ethyl)-1H-pyrazolo[3,4-d]pyrimidin-4(5H)-one], the Ki stood at 1.1 nM.
On to `Cc1nc2c(c(CF)nn2C(c2ccc(OC(F)(F)F)cc2)C2CC2)c(=O)[nH]1` (single isomer, unassigned) [Example 224, (R)- or (S)-1-(Cyclopropyl(4-(trifluoromethoxy)phenyl)methyl)-3-(fluoromethyl)-6-methyl-1,5-dihydro-4H-pyrazolo[3,4-d]pyrimidin-4-one], for which the inhibition constant (Ki) worked out at 0.48 nM.
On to `Cc1nc2c(c(CO)nn2C(c2ccc(OC(F)(F)F)cc2)C(C)C)c(=O)[nH]1` (single isomer, unassigned) [Example 84, (R)- or (S)-3-(Hydroxymethyl)-6-methyl-1-(2-methyl-1-(4-(trifluoromethoxy)phenyl)propyl)-1H-pyrazolo[3,4-d]pyrimidin-4(5H)-one], for which the inhibition constant (Ki) came to 11 nM.
As for `CC(C)c1nc2c(c(CO)nn2C(C)c2ccc(C(F)(F)F)cc2)c(=O)[nH]1` (racemic) [Example 296, 3-(Hydroxymethyl)-6-(1-methylethyl)-1-{1-[4-(trifluoromethyl)phenyl]ethyl}-1,5-dihydro-4H-pyrazolo[3,4-d]pyrimidin-4-one], the Ki came out at 39 nM.
`COCc1nc2c(c(CO)nn2C(C)c2ccc(C(F)(F)F)cc2)c(=O)[nH]1` (single isomer, unassigned) [Example 293]: the inhibition constant (Ki) was determined as 3.5 nM.
Regarding `CC(c1ccc(C(F)(F)F)cc1)n1nc(CO)c2c(=O)[nH]c(C(F)F)nc21` (stereo not shown) [Example 284, 6-(Difluoromethyl)-3-(hydroxymethyl)-1-(1-(4-(trifluoromethyl)phenyl)ethyl)-1H-pyrazolo[3,4-d]pyrimidin-4(5H)-one], the Ki is 64 nM.
With `Cc1nc2c(c(CO)nn2C(c2ccc(OC(F)(F)F)c(F)c2)C2CC2)c(=O)[nH]1` (single isomer, unassigned) [Example 92, (R)- or (S)-1-(Cyclopropyl(3-fluoro-4-(trifluoromethoxy)phenyl)methyl)-3-(hydroxymethyl)-6-methyl-1H-pyrazolo[3,4-d]pyrimidin-4(5H)-one], the Ki was 8.3 nM.

Values taken from US10160762B2, “6-alkyl dihydropyrazolopyrimidinone compounds as PDE2 inhibitors” (Merck Sharp & Dohme Corp., priority 2015, dated 2018).
